Legend:
NQO1 protein = NQO1 protein (Homo sapiens, UniProt P15559); test: NQO1 activity measurement (cytochrome C reduction); format: biochemical; details: 5 ng NQO1 protein, 200 μM NADH, 77 μM cytochrome C, 37° C., absorbance 550 nm for 10 minutes
C57BLKS/J db/db mice [1] = test: Glucose level and glycosylated hemoglobin (Hb1Ac) in fasted diabetic mice (db/db); format: in vivo; details: Exp. Ex. 5, FIG. 9: 10 week-old db/db mice, 40, 80, 120 mg/kg oral, fasted for 14 hours, vs 0.1% SLS controls
Protocol: 10 week-old C57BLKS/J db/db mice having genetic obesity characteristics available from ORIENTBIO were prepared. Two mice were raised in each polycarbonate breeding cage (200 W×260 L×130H (mm), Three-shine) in which temperature was 22 to 24° C., relative humidity was 30 to 50%, illuminance was 150 to 300 lux, night and day were 12 hours, and exhaust was performed at 10 to 15 air changes per hour. As a feed, low fat diet (11.9 kcal % fat, 5053, Labdiet) manufactured by ORIENTBIO was used. The feed was contained in a feeder and free intake was allowed. As drinking water, water, which was contained in a 250 mL polycarbonate based bottle, purified through a filter and a sterilizer was used and free intake was allowed.
(§1) The compound according to Example 1 synthesized in the present invention was orally administered to three C57BLKS/J db/db mice in amounts of 40 mg/kg, 80 mg/kg, and 120 mg/kg, respectively. For administration, a disposable syringe fitted with a sonde for oral administration was used and 10 ml/kg of the compound was orally administered into the stomach. As controls, three C57BLKS/J db/db mice were administered 0.1% SLS in an amount of 120 mg/kg in the same manner as described above. After administration, the mice were fasted for 14 hours and glucose levels and glycosylated hemoglobin thereof were measured. Results are illustrated in FIG. 9 below.

Cells = test: Measurement of lactate change amount within cells; format: cell-based; details: PCA extract of cells, lactate measured from supernatant (Megazyme, K-LATE)
Outline: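 Cells were extracted in 6% perchloric acid and centrifuged (13,000 rpm, 10 min), and the dried pellet was weighed. The supernatant was neutralised with 1 M KOH, brought up in 0.33 M potassium phosphate pH 7.5 and re-centrifuged. Lactate was measured in this supernatant with a commercial lactate kit.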

C57BLKS/J db/db mice [2] = test: Weight loss effects and blood sugar in diabetic mice (db/db); format: in vivo; details: four weeks, vs 0.1% SLS controls
Protocol: 7 week-old C57BLKS/J db/db mice (chales river laboratories Japan, Inc) having genetic diabetic characteristics available from ORIENTBIO were prepared. Two mice were raised in each polycarbonate breeding cage (200 W×260 L×130H (mm), Three-shine) in which temperature was 22 to 24° C., relative humidity was 30 to 50%, illuminance was 150 to 300 lux, night and day were 12 hours, and exhaust was performed at 10 to 15 air changes per hour. As a feed, low fat diet (11.9 kcal % fat, 5053, Labdiet) manufactured by ORIENTBIO was used. The feed was contained in a feeder and free intake was allowed. As drinking water, water, which was contained in a 250 mL polycarbonate based bottle, purified through a filter and a sterilizer was used and free intake was allowed.
as §1, with “respectively, once every day for four weeks.” for “respectively.”, “a time-dependent weight increase ratio, weight change, and intake amount” for “the mice”, “measured” for “fasted for 14 hours”, “results” for “glucose levels and glycosylated hemoglobin thereof were measured. Results”, “7” for “9”, “below. In addition, blood sugar was measured and results are illustrated in FIG. 8 below.” for “below.”
Weights of the experimental animals were measured immediately before administration of a test material and six times a week from an administration initiation day to a test termination day. Increased total weights were calculated by subtracting weights measured on an experiment initiation day from weights measured one day before an experiment termination day. Food intake amounts were calculated by measuring feed supply amounts and remaining amounts twice a week from an initiation day of test material administration to a test termination day for each individual. Blood sugar was measured before an administration initiation day of the test material and once a week between an administration initiation day and a test termination day.

[3] = Exp. Ex. 4, FIG. 7: 7 week-old db/db mice, 40, 80, 120 mg/kg oral once every day

Sequence of NQO1 protein (P15559 whole entry, species assumed): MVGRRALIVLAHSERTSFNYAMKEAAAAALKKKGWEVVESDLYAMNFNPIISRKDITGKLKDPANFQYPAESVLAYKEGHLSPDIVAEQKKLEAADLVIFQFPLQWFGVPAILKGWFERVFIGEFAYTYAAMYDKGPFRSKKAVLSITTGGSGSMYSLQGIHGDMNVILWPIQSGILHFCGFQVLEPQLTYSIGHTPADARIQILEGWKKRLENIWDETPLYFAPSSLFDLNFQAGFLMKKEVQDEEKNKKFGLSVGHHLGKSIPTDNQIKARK

CC(C)c1nc2c([nH]1)C(=O)C(=O)c1ccccc1-2 [Example 1, 2-isopropyl-1H-naphtho[2,1-d]imidazole-4,5-dione]
NQO1 activity (5 μM, [nmol cytochrome C reduced/min/μg protein]) (NQO1 protein): 177 nmol cytochrome C reduced/min/μg protein | glucose level (C57BLKS/J db/db mice [1]): significantly decreased | glycosylated hemoglobin (Hb1Ac) (C57BLKS/J db/db mice [1]): significantly decreased | Lactate change amount within cells (nmol/mg cell) (Cells): 6.1 nmol/mg cell | intake amount (C57BLKS/J db/db mice [2]; [3]): significantly decreased | weight change (C57BLKS/J db/db mice [2]; [3]): significantly decreased | weight increase ratio (C57BLKS/J db/db mice [2]; [3]): significantly decreased | blood sugar amount (C57BLKS/J db/db mice [2]; Exp. Ex. 4, FIG. 8: 7 week-old db/db mice, 40, 80, 120 mg/kg oral once every day, measured once a week): significantly decreased

Reference: patent US10766882B2, “1,2-naphthoquinone based derivative and method of preparing the same” (YUNGJIN PHARM. CO., LTD., priority 2013, dated 2020)
